In patent US20090069300A1, “ISOQUINOLINYL AND ISOINDOLINYL DERIVATIVES AS HISTAMINE-3 ANTAGONISTS” (Wyeth, priority 2007, published 2009):
Counter-ions that a name gives are not always drawn.

Which melting point does the source give for `O=C1c2ccc(-c3ccc(F)cc3)cc2CCN1CCN1CCCCC1` (as salt: hydrochloride) [Example 43, 6-(4-fluorophenyl)-2-(2-piperidin-1-ylethyl)-3,4-dihydroiso-quinolin-1(2H)-one hydrochloride] here?
Its melting point is 241 to 243 °C.

With `N#Cc1ccc(-c2ccc3c(c2)CCN(CCCN2CCCCC2)C3=O)cc1` (as salt: hydrochloride) [Example 45, 4-[1-oxo-2-(3-piperidin-1-ylpropyl)-1,2,3,4-tetrahydroisoquinolin-6-yl]benzonitrile hydrochloride] as the compound, how does the melting point read?
Its melting point is 249 to 250 °C.

For `N#Cc1ccc(Oc2ccc3c(c2)CCN(CCN2CCCC2)C3=O)nc1` (as salt: hydrochloride) [Example 47, 6-{[1-oxo-2-(2-pyrrolidin-1-ylethyl)-1,2,3,4-tetrahydroisoquinolin-6-yl]oxy}nicotinonitrile], which melting point is on record?
The melting point was 189 to 190 °C.

Which melting point does the source give for `C[C@@H]1CCCN1CCN1CCc2cc(Oc3ccc(C#N)cn3)ccc2C1=O` (as salt: hydrochloride) [Example 48, 6-[(2-{2-[(2R)-2-methylpyrrolidin-1-yl]ethyl}-1-oxo-1,2,3,4-tetrahydroisoquinolin-6-yl)oxy]nicotinonitrile] here?
The melting point was 184 to 185 °C.

Which melting point does the source give for `C[C@@H]1CCCN1CCN1CCc2cc(Oc3ccc(C#N)cc3)ccc2C1=O` (as salt: hydrochloride) [Example 49, 4-[(2-{2-[(2R)-2-methylpyrrolidin-1-yl]ethyl}-1-oxo-1,2,3,4-tetrahydroisoquinolin-6-yl)oxy]benzonitrile] here?
The melting point was 254 to 255 °C.

For `N#Cc1ccc(Oc2ccc3c(c2)CCN(CCN2CCCC2)C3=O)cc1` (as salt: hydrochloride) [Example 50, 4-{[1-oxo-2-(2-pyrrolidin-1-ylethyl)-1,2,3,4-tetrahydroisoquinolin-6-yl]oxy}benzonitrile], which melting point is on record?
Its melting point is 146 to 147 °C.

For `C[C@@H]1CCCN1CCN1CCc2cc(Oc3ccc(C#N)nc3)ccc2C1=O` (as salt: hydrochloride) [Example 51, 5-[(2-{2-[(2R)-2-methylpyrrolidin-1-yl]ethyl}-1-oxo-1,2,3,4-tetrahydroisoquinolin-6-yl)oxy]pyridine-2-carbonitrile], which melting point is on record?
Its melting point is 218 to 220 °C.

Which melting point does the source give for `N#Cc1ccc(Oc2ccc3c(c2)CCN(CCN2CCCC2)C3=O)cn1` (as salt: hydrochloride) [Example 52, 5-{[1-oxo-2-(2-pyrrolidin-1-ylethyl)-1,2,3,4-tetrahydroisoquinolin-6-yl]oxy}pyridine-2-carbonitrile] here?
The melting point was 203 to 205 °C.

For `O=C(c1ccc(-c2ccc3c(c2)CCN(CCN2CCCC2)C3=O)cc1)N1CCCC1` (as salt: hydrochloride) [Example 54, 6-[4-(pyrrolidin-1-ylcarbonyl)phenyl]-2-(2-pyrrolidin-1-ylethyl)-3,4-dihydroisoquinolin-1(2H)-one hydrochloride], which melting point is on record?
Its melting point is 245 to 248 °C.

With `O=C(NC1CC1)c1ccc(-c2ccc3c(c2)CCN(CCN2CCCC2)C3=O)cc1` (as salt: hydrochloride) [Example 57, N-cyclopropyl-4-[1-oxo-2-(2-pyrrolidin-1-ylethyl)-1,2,3,4-tetrahydroisoquinolin-6-yl]benzamide] as the compound, how does the melting point read?
The melting point was 222 to 224 °C.

For `CNC(=O)c1ccc(-c2ccc3c(c2)CCN(CCN2CCCC2)C3=O)cc1` (as salt: hydrochloride) [Example 59, N-methyl-4-[1-oxo-2-(2-pyrrolidin-1-ylethyl)-1,2,3,4-tetrahydroisoquinolin-6-yl]benzamide], which melting point is on record?
The melting point was 235 to 236 °C.

Which melting point does the source give for `O=C(NCC1CC1)c1ccc(-c2ccc3c(c2)CCN(CCN2CCCC2)C3=O)cc1` (as salt: hydrochloride) [Example 60, N-(cyclopropylmethyl)-4-[1-oxo-2-(2-pyrrolidin-1-ylethyl)-1,2,3,4-tetrahydroiso-quinolin-6-yl]benzamide] here?
Its melting point is 216 to 218 °C.

For `CC(C)NC(=O)c1ccc(-c2ccc3c(c2)CCN(CCN2CCCC2)C3=O)cc1` (as salt: hydrochloride) [Example 61, N-isopropyl-4-[1-oxo-2-(2-pyrrolidin-1-ylethyl)-1,2,3,4-tetrahydroisoquinolin-6-yl]benzamide], which melting point is on record?
The melting point was 257 to 259 °C.

For `CCN(CC)C(=O)c1ccc(-c2ccc3c(c2)CCN(CCN2CCCC2)C3=O)cc1` (as salt: hydrochloride) [Example 62, N,N-diethyl-4-[1-oxo-2-(2-pyrrolidin-1-ylethyl)-1,2,3,4-tetrahydroisoquinolin-6-yl]benzamide], which melting point is on record?
Its melting point is 177 to 178 °C.

With `O=C(NC1CCC1)c1ccc(-c2ccc3c(c2)CCN(CCN2CCCC2)C3=O)cc1` (as salt: hydrochloride) [Example 63, N-cyclobutyl-4-[1-oxo-2-(2-pyrrolidin-1-ylethyl)-1,2,3,4-tetrahydroisoquinolin-6-yl]benzamide] as the compound, how does the melting point read?
Its melting point is 255 to 258 °C.

For `O=C(c1ccc(-c2ccc3c(c2)CCN(CCN2CCCC2)C3=O)cc1)N1CCC1` (as salt: hydrochloride) [Example 64, 6-[4-(azetidin-1-ylcarbonyl)phenyl]-2-(2-pyrrolidin-1-ylethyl)-3,4-dihydroisoquinolin-1(2H)-one], which melting point is on record?
Its melting point is 229 to 230 °C.

For `CCN(CC)C(=O)c1ccc(-c2ccc3c(c2)CCN(CCN2CCC[C@H]2C)C3=O)cc1` (as salt: hydrochloride) [Example 65, N,N-diethyl-4-(2-{2-[(2R)-2-methylpyrrolidin-1-yl]ethyl}-1-oxo-1,2,3,4-tetrahydroisoquinolin-6-yl)benzamide], which melting point is on record?
The melting point was 221 to 222 °C.

For `C[C@@H]1CCCN1CCN1CCc2cc(-c3ccc(C(=O)N4CCCC4)cc3)ccc2C1=O` (as salt: hydrochloride) [Example 66, 2-{2-[(2R)-2-methylpyrrolidin-1-yl]ethyl}-6-[4-(pyrrolidin-1-ylcarbonyl)phenyl]-3,4-dihydroisoquinolin-1(2H)-one], which melting point is on record?
Its melting point is 243 to 244 °C.

Which melting point does the source give for `NC(=O)c1ccc(-c2ccc3c(c2)CCN(CCN2CCCC2)C3=O)cc1` (as salt: hydrochloride) [Example 67, 4-[1-oxo-2-(2-pyrrolidin-1-ylethyl)-1,2,3,4-tetrahydroisoquinolin-6-yl]benzamide] here?
The melting point was 268 to 270 °C.

Which melting point does the source give for `O=C(NCCF)c1ccc(-c2ccc3c(c2)CCN(CCN2CCCC2)C3=O)cc1` (as salt: hydrochloride) [Example 68, N-(2-fluoroethyl)-4-[1-oxo-2-(2-pyrrolidin-1-ylethyl)-1,2,3,4-tetrahydroisoquinolin-6-yl]benzamide] here?
Its melting point is 215 to 216 °C.

For `COCCNC(=O)c1ccc(-c2ccc3c(c2)CCN(CCN2CCCC2)C3=O)cc1` (as salt: hydrochloride) [Example 69, N-(2-methoxyethyl)-4-[1-oxo-2-(2-pyrrolidin-1-ylethyl)-1,2,3,4-tetrahydroisoquinolin-6-yl]benzamide], which melting point is on record?
Its melting point is 178 to 180 °C.

With `CC(C)OCCNC(=O)c1ccc(-c2ccc3c(c2)CCN(CCN2CCCC2)C3=O)cc1` (as salt: hydrochloride) [Example 70, N-(2-isopropoxyethyl)-4-[1-oxo-2-(2-pyrrolidin-1-ylethyl)-1,2,3,4-tetrahydroisoquinolin-6-yl]benzamide] as the compound, how does the melting point read?
Its melting point is 164 to 166 °C.

With `O=C(NCCOc1ccccc1)c1ccc(-c2ccc3c(c2)CCN(CCN2CCCC2)C3=O)cc1` (as salt: hydrochloride) [Example 71, 4-[1-oxo-2-(2-pyrrolidin-1-ylethyl)-1,2,3,4-tetrahydroisoquinolin-6-yl]-N-(2-phenoxyethyl)-benzamide] as the compound, how does the melting point read?
The melting point was 123 to 130 °C.

Which melting point does the source give for `CCOCCNC(=O)c1ccc(-c2ccc3c(c2)CCN(CCN2CCCC2)C3=O)cc1` (as salt: hydrochloride) [Example 72, N-(2-ethoxyethyl)-4-[1-oxo-2-(2-pyrrolidin-1-ylethyl)-1,2,3,4-tetrahydroisoquinolin-6-yl]benzamide] here?
Its melting point is 193 to 195 °C.

Which melting point does the source give for `C[C@@H]1CCCN1CCN1CCc2cc(-c3ccc(C(=O)NCC4CC4)cc3)ccc2C1=O` (as salt: hydrochloride) [Example 73, N-(cyclopropylmethyl)-4-(2-{2-[(2R)-2-methylpyrrolidin-1-yl]ethyl}-1-oxo-1,2,3,4-tetrahydroisoquinolin-6-yl)benzamide] here?
Its melting point is 188 to 190 °C.

For `C[C@@H]1CCCN1CCN1CCc2cc(-c3ccc(C(=O)NC4CCC4)cc3)ccc2C1=O` (as salt: hydrochloride) [Example 74, N-cyclobutyl-4-(2-{2-[(2R)-2-methylpyrrolidin-1-yl]ethyl}-1-oxo-1,2,3,4-tetrahydroisoquinolin-6-yl)benzamide], which melting point is on record?
Its melting point is 210 to 211 °C.

With `CCNC(=O)c1ccc(-c2ccc3c(c2)CCN(CCN2CCC[C@H]2C)C3=O)cc1` (as salt: hydrochloride) [Example 75, N-ethyl-4-(2-{2-[(2R)-2-methylpyrrolidin-1-yl]ethyl}-1-oxo-1,2,3,4-tetrahydroisoquinolin-6-yl)benzamide] as the compound, how does the melting point read?
Its melting point is 228 to 230 °C.

Which melting point does the source give for `C[C@@H]1CCCN1CCN1CCc2cc(-c3ccc(C(=O)NC4CC4)cc3)ccc2C1=O` (as salt: hydrochloride) [Example 76, N-cyclopropyl-4-(2-{2-[(2R)-2-methylpyrrolidin-1-yl]ethyl}-1-oxo-1,2,3,4-tetrahydroisoquinolin-6-yl)benzamide] here?
Its melting point is 255 to 257 °C.

Which melting point does the source give for `CC(C)NC(=O)c1ccc(-c2ccc3c(c2)CCN(CCN2CCC[C@H]2C)C3=O)cc1` (as salt: hydrochloride) [Example 77, N-isopropyl-4-(2-{2-[(2R)-2-methylpyrrolidin-1-yl]ethyl}-1-oxo-1,2,3,4-tetrahydroisoquinolin-6-yl)benzamide] here?
Its melting point is 188 to 189 °C.

Which melting point does the source give for `CNC(=O)c1ccc(-c2ccc3c(c2)CCN(CCN2CCC[C@H]2C)C3=O)cc1` (as salt: hydrochloride) [Example 78, N-methyl-4-(2-{2-[(2R)-2-methylpyrrolidin-1-yl]ethyl}-1-oxo-1,2,3,4-tetrahydroisoquinolin-6-yl)benzamide] here?
The melting point was 258 to 260 °C.

For `O=C(c1ccc(-c2ccc3c(c2)CCN(CCN2CCCC2)C3=O)cc1)N1CCCCC1` (as salt: hydrochloride) [Example 79, 6-[4-(piperidin-1-ylcarbonyl)phenyl]-2-(2-pyrrolidin-1-ylethyl)-3,4-dihydroisoquinolin-1(2H)-one], which melting point is on record?
The melting point was 240 to 241 °C.
